In article PMC7618597, “Dual Nurr1/RXR agonism of valerenic acid and synthetic mimetics enables dimer-selective Nurr1 modulation” (ACS medicinal chemistry letters, 2025):
Where “and” joins values, the source holds several entries; their conditions need not be identical. Equal values may be shown once.

Experiments:
[1] = target: T1, Nurr1 (Homo sapiens, UniProt P43354); test: Gal4-hybrid reporter gene assay, Nurr1; assay type: cell-based; settings: for activity on Nurr1 (fold reporter activation vs. DMSO ctrl): 30 and 100 µM, Figure S1, mean±SD, n=3; for remain. Nurr1 activity: 30 μM; for agonist activity on Gal4-Nurr1: amide analogues
T1 construct: pFA-CMV-hNurr1-LBD; expressed in transfected cells; host or cells: HEK293T
T1 sequence (P43354 360-595 limits assumed): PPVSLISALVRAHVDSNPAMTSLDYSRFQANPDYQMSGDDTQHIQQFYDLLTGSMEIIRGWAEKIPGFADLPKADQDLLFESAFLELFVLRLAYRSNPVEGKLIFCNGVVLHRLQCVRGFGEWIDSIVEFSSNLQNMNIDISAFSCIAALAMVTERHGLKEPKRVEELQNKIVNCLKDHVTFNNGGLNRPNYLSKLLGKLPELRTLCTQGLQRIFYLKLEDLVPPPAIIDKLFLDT
Method: (§1) modified Eagle’s medium (DMEM), high glucose supplemented with 10% fetal calf serum (FCS), sodium pyruvate (1 mM), penicillin (100 U/mL), and streptomycin (100 μg/mL) at 37 °C and 5% CO2 and seeded in 96-well plates (3×10^4 cells/well). After 24 h, the medium was changed to Opti-MEM without supplements, and the cells were transiently transfected using Lipofectamine LTX reagent (Invitrogen) according to the manufacturer’s protocol. Five hours after transfection, the cells were incubated with the test compounds in Opti-MEM supplemented with penicillin (100 U/mL), streptomycin (100 μg/mL), and 0.1% DMSO for 15 h before luciferase activity was measured using the Dual -Glo Luciferase Assay System (Promega) according to the manufacturer’s protocol on a Tecan Spark l uminometer (Tecan Deutschland GmbH, Germany). Firefly luminescence was divided by Renilla luminescence and multiplied by 1000, resulting in relative light units (RLU) to normalize for transfection efficiency and cell growth. Fold activation was obtained by dividing the mean RLU of a sample by the mean RLU of the untreated control. All samples were tested in at least three biologically independent experiments in duplicates. For dose –response curve fitting and calculation of EC50 values, the equation “[Agonist] vs. response – Variable slope (four parameters)” was used in GraphPad Prism (version 5.04, GraphPad Software, La Jolla, CA, USA). […] (10 μM, NR4A) and bexarotene (1 µM, NR2B) served as the positive control. […]
(§2) 150 μM in the same buffer containing 2-4% DMSO) in 21–26 injections (1 × 1 μL and 20 × 4 to 25 × 4 μL) with an injection interval of 120 s. As control experiments, the test compounds were titrated to the buffer, and the buffer was titrated to the protein under otherwise identical conditions. The heat rates of the compound-Nurr1 LBD titrations were analyzed using NanoAnalyze software (TA Instruments, New Castle, DE) with an independent binding model.

[2] = system: RXR; test: Gal4 hybrid reporter gene assay, RXR (subtype not stated); assay type: cell-based; settings: for activity on RXR (fold reporter activation vs. DMSO ctrl): 30 and 100 µM, Figure S1, mean±SD, n=3; for RXR activation: amide analogues
Method: as §1, §2

[3] = target: T2, RXRα (Homo sapiens, UniProt P19793); test: Gal4-hybrid reporter gene assay, RXRα; assay type: cell-based; settings: for RXRα activity at single concentration: 30 μM
T2 construct: pFA-CMV-hRXRα-LBD; expressed in transfected cells; host or cells: HEK293T
T2 sequence (P19793 227-458 limits assumed): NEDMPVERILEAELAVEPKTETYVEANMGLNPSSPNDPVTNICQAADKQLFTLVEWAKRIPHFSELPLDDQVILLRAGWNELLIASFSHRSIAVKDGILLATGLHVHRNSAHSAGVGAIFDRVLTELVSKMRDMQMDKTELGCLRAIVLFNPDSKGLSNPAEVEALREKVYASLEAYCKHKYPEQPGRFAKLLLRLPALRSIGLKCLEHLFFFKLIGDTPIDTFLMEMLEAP
Method: as §1, §2

[4] = target: T3, Nurr1 homodimer (Homo sapiens, UniProt P43354); test: Nurr1 LBD homodimerization assay (HTRF); assay type: biochemical; settings: 30 μM, Tb3+-cryptate and sGFP labeled Nurr1 LBD
T3 construct: Tb^3+-cryptate labeled and sGFP-labeled Nurr1 LBD proteins; FRET acceptor consisted of sGFP-Nurr1 LBD
T3 sequence (P43354 360-595 limits assumed): as the sequence (P43354 360-595 limits assumed) above
Method: (§3) To determine the molecular response of the Nurr1:RXR heterodimer on dual agonist binding, we employed homogenous time-resolved fluorescence resonance energy transfer (HTRF) based assays with labeled Nurr1 and RXR LBD proteins. Tb^3+-cryptate as streptavidin conjugate served as FRET donor and was coupled to biotinylated proteins. sGFP fusion proteins of the receptors of interest were used as FRET acceptors. Ligand effects on dimer formation were determined by titrating the sGFP-labeled dimer partner with a fixed concentration of the Tb^3+-labeled counterpart. […] The same effect was also observable for the natural product 1 (Figure S3).
(§4) Nurr1 dimerization assays (HTRF). Modulation of Nurr1 LBD homodimerization and heterodimerization of the LDBs of Nurr1 and RXRα was investigated by HTRF as reported previously4. Nurr1 LBD or RXRα LBD proteins labeled with sGFP were titrated against a fixed concentration of Tb3+-cryptate as streptavidin conjugate (Tb-SA) (610SATLF, Revvity) coupled to biotinylated Nurr1 LBD protein in the presence of test compounds at 30 µM or absence of compound as a negative control (apo). Assay solutions were prepared in buffer containing 25 mM HEPES pH 7.5, 150 mM KF, 5% (m/v) glycerol, 5 mM DTT, 0.1% (m/v) CHAPS and 1%
(§5) DMSO. The FRET donor complex was formed from biotinylated Nurr1 LBD (final concentration 0.188 nM) and Tb-SA (0.375 nM) and was kept constant. For the homodimerization assay, the FRET acceptor consisted of sGFP-Nurr1 LBD, which was titrated from 0.5 µM, while free sGFP was added to keep the total GFP content stable at 0.5 µM. […] Samples were equilibrated at room temperature for 2 h and fluorescence intensities (FI) after excitation at 340 nm were recorded at 520 nm for sGFP acceptor fluorescence and at 620 for Tb-SA donor fluorescence on a SPARK plate reader (Tecan Group Ltd.). […]
(§6) Evaluation of Nurr1-regulated gene expression. […] RNA concentration and purity were assessed using a NanoDrop One UV-vis spectrophotometer (Thermo Fisher Scientific) at 260/280 nm. […]

[5] = target: T4, RXRβ (Homo sapiens, UniProt P28702); test: Gal4-hybrid reporter gene assay, RXRβ; assay type: cell-based; settings: for RXRβ activity at single concentration: 30 μM
T4 construct: CMV-hRXRβ-LBD; expressed in transfected cells; host or cells: HEK293T
T4 sequence (P28702 296-529 limits assumed): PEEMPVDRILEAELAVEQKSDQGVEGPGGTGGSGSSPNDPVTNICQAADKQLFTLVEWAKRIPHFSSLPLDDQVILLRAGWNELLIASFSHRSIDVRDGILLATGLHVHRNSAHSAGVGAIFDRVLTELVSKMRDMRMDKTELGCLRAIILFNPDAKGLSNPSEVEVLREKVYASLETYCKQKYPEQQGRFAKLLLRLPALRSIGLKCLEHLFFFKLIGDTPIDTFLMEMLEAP
Method: as §1, §2

[6] = target: T5, RXRγ (Homo sapiens, UniProt P48443); test: Gal4-hybrid reporter gene assay, RXRγ; assay type: cell-based; settings: for RXRγ activity at single concentration: 30 μM
T5 construct: pFA-CMV-hRXRγ-LBD; expressed in transfected cells; host or cells: HEK293T
T5 sequence (P48443 231-459 limits assumed): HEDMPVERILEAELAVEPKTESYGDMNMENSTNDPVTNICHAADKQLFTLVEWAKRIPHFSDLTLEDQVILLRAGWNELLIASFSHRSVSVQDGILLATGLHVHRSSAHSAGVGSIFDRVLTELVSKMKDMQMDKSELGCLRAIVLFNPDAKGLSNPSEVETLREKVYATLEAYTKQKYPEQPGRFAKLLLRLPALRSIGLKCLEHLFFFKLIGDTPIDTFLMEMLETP
Method: as §1, §2

[7] = target: T6, Nurr1 LBD (Homo sapiens, UniProt P43354); test: Isothermal titration calorimetry, recombinant Nurr1 LBD; assay type: binding; settings: ITC
T6 construct: made in house
T6 sequence (P43354 360-595 limits assumed): as the sequence (P43354 360-595 limits assumed) above
Method: (§7) Isothermal titration calorimetry. ITC experiments for ligand binding to Nurr1 and RXR were conducted on an Affinity ITC instrument (TA Instruments, New Castle, DE) at 25 °C with a stirring rate of 75 rpm using recombinantly expressed ligand binding domain proteins as described previously5,6. The respective LBD protein (12–25 μM) in buffer (20 mM Tris pH 7.5, 100 mM NaCl, 5% glycerol) containing 2-4% DMSO was titrated with the test compounds (100-150 μM in the same buffer containing 2-4% DMSO) in 21–26 injections (1 × 1 μL and 20 × 4 to 25 × 4 μL) with an injection interval of 120 s. As control experiments, the test compounds were titrated to the buffer, and the buffer was titrated to the protein under otherwise identical conditions. The heat rates of the compound-Nurr1 LBD titrations were analyzed using NanoAnalyze software (TA Instruments, New Castle, DE) with an independent binding model.

[8] = target: T7, RXRα LBD (Homo sapiens, UniProt P19793); test: Isothermal titration calorimetry, recombinant RXRα LBD; assay type: binding; settings: ITC
T7 construct: made in house
T7 sequence (P19793 227-458 limits assumed): T2 sequence (P19793 227-458 limits assumed)
Method: as §7

[9] = target: Nurr1:RXR heterodimer (Homo sapiens, UniProt P19793+P43354); test: Nurr1 LBD:RXRα LBD heterodimerization assay (HTRF); assay type: biochemical; settings: 10 µM, Figure S4
Sequence of Nurr1:RXR heterodimer (P43354 360-595 limits assumed, one chain of several): as the sequence (P43354 360-595 limits assumed) above
Method: as §3, §4, §5, §6

[10] = Gal4-hybrid reporter gene assay
[11] = Gal4-hybrid reporter gene assay, mean±S.E.M., n≥3

| SMILES | activity on Nurr1 (fold reporter activation vs. DMSO ctrl) [1] | activity on RXR (fold reporter activation vs. DMSO ctrl) [2] | Kd(Nurr1 LBD) [7] | RXRα activity at single concentration [3] | remain. Nurr1 activity [1, 10] | agonist activity on Gal4-Nurr1 [1] | RXR activation [2] | RXRβ activity at single concentration [5] | RXRγ activity at single concentration [6] | Kd(RXRα LBD) [8] | also measured |
| --- | --- | --- | --- | --- | --- | --- | --- | --- | --- | --- | --- |
| CC(=O)O[C@@H]1CC(C)=C2[C@H]1[C@H](C)CC[C@H]2/C=C(\C)C(=O)O [VA-OAc, acetoxy-valerenic acid, reference compound] | no activity | no activity | – | – | – | – | – | – | – | – | – |
| CC1=C2[C@H](/C=C(\C)C(=O)O)CC[C@@H](C)[C@H]2CC1 [compound 1, valerenic acid] | – | – | – | – | – | – | – | – | – | – | max. act. (RXR) α [3, 10]: 9±1 fold; EC50 [3, 11]: 27 µM; max. act. (Nurr1) ([1]; Gal4-hybrid reporter gene assay, max. fold activation): 1.3 fold and 1.3±0.1 fold; EC50 [1, 11]: 3 ± 1 µM; Nurr1 homodimer formation [4]: same effect; max. act. (RXR) β [5, 10]: 69±1 fold; EC50 [5, 11]: 5.2 µM; max. act. (RXR) γ [6, 10]: 4±1 fold; EC50 [6, 11]: 43 µM |
| Cc1c(C)n(-c2ccc(CC(N)=O)cc2)c2ccc(F)cc12 [compound 5] | – | – | no binding detected | α: inactive (30 μM) β: inactive (30 μM) γ: inactive (30 μM) | 85±7% remain. Nurr1 activity (30 μM) | lost agonist activity | failed to activate RXR | α: inactive (30 μM) β: inactive (30 μM) γ: inactive (30 μM) | α: inactive (30 μM) β: inactive (30 μM) γ: inactive (30 μM) | no binding detected | – |
| CC1(C)CCC(C)(C)c2cc(C3(c4ccc(C(=O)O)cc4)OCCO3)ccc21 [SR11237, reference compound] | – | – | – | – | – | – | – | – | – | – | Nurr1:RXR heterodimer formation (dimer strength) [9]: Diminished dimer strength |
| Cc1c2c(n(-c3ccc(CC(N)=O)cc3)c1C)CCC(F)(F)C2 [compound 4] | – | – | no binding detected | α: inactive (30 μM) β: inactive (30 μM) γ: inactive (30 μM) | 86±9% remain. Nurr1 activity (30 μM) | lost agonist activity | failed to activate RXR | α: inactive (30 μM) β: inactive (30 μM) γ: inactive (30 μM) | α: inactive (30 μM) β: inactive (30 μM) γ: inactive (30 μM) | no binding detected | – |
| CC1=C2[C@@H]([C@H](C)CC[C@H]2/C=C(\C)C(=O)O)[C@H](O)C1 [VA-OH, hydroxy-valerenic acid, reference compound] | no activity | no activity | – | – | – | – | – | – | – | – | – |
